# Literature values in patent US20030077302A1, “Diclofenamide suspension gel” (priority 2000, published 2003).
# Tests used:
# [1] = system: intraocular pressure; settings: rabbits
# [2] = rabbits, topical suspensions
SMILES,"tolerability, single applications (rabbit, in vivo)","side effects, repeated use (rabbits, solutions, repeated use)",reduction of the intraocular pressure ([1]; topical aqueous solution),reduction of the intraocular pressure compared with suspensions of the free acid of diclofenamide ([1]; topical solutions),aqueous humor values compared with solutions of sodium diclofenamide [2]
NS(=O)(=O)c1cc(Cl)c(Cl)c(S(N)(=O)=O)c1 [diclofenamide sodium],well tolerated,severe undesirable side effects,clear and long lasting reduction of the intraocular pressure,clearly stronger and longer reduction of the intraocular pressure,–
"NS(=O)(=O)c1cc(Cl)c(Cl)c(S(N)(=O)=O)c1 [diclofenamide, 4,5-dichlorbenzene-1,3-disulfonamide]",–,–,–,–,clearly at a lower level
